According to patent publication US11154071B2, “Sweetener iso-mogroside V” (Glvaudan SA, priority 2007, dated 2021):

What was measured:
Type in all cases: in vivo
[1] = Preliminary experiments on flavour enhancing effect on sweeteners
[2] = test system: sweet sensitive panelists; assay: Sweetness enhancement of iso-mogroside V at near threshold concentration in 7% sucrose solution, sensory panel; settings: 10 ppm iso-mogroside V in 7% sucrose solution
Procedure: The sweetness enhancement properties of iso-mogroside V was determined using a sample having a concentration of 10 ppm iso-mogroside V, which is near the sweetness detection threshold, in 7% sucrose solution.
The iso-mogroside V sample was directly compared to samples of 7%, 8% or 9% sucrose, and panelists were instructed to compare the sweetness intensity of the samples.
The comparisons were carried out by a panel of 6 sweet sensitive panelists. All samples were presented to panelists in 15 ml aliquots at ambient temperature. Panelists compared the iso-mogroside V sample to each of the sucrose samples.

[3] = test system: sweet sensitive panelists; assay: Determination of the sweetness threshold of iso-mogroside V: isointensity to sucrose solutions, paired comparison
Procedure: […] Samples were paired and tasted left to right with rinsing of the mouth (water) in-between. 20 ppm iso-mogroside V was evaluated as described but with 4 sweet sensitive panelists and 0.5, 1.0 and 1.5% sucrose.

[4] = test system: sweet sensitive panelists; assay: Comparison of the sweetness of mogroside V and iso-mogroside V in water, blind samples, sensory panel; settings: panel of 4
Procedure: The intensity of sweet taste of iso-mogroside V when compared to mogroside V was determined in water using near-sweetness detection threshold concentrations. The direct comparison was carried out by a panel of 4 sweet sensitive panelists. Blind samples (identity unidentifiable by panelists) were randomly presented to panelists in 15 ml aliquots at ambient temperature. Sensory evaluation started with the lower sample concentration (10 ppm).

C[C@H](CC[C@@H](O[C@@H]1O[C@H](CO[C@@H]2O[C@H](CO)[C@@H](O)[C@H](O)[C@H]2O)[C@@H](O)[C@H](O)[C@H]1O[C@@H]1O[C@H](CO)[C@@H](O)[C@H](O)[C@H]1O)C(C)(C)O)[C@H]1CC[C@@]2(C)[C@@H]3CC=C4[C@@H](CC[C@H](O[C@@H]5O[C@H](CO)[C@@H](O[C@@H]6O[C@H](CO)[C@@H](O)[C@H](O)[C@H]6O)[C@H](O)[C@H]5O)C4(C)C)[C@]3(C)[C@H](O)C[C@]12C [iso-mogroside V, 3-[(4-O-β-D-glucopyranosyl-β-D-glucopyranosyl)oxy]-mogrol-24-O-β-D-glucopyranosyl-(1→2)-O-[β-D-glucopyranosyl-(1→6)]-β-D-glucopyranoside]
flavour enhancing effect on sweeteners compared to its known isomer (mogroside V) [1]: particularly high flavour enhancing effect | panelists who found the sample as sweet or sweeter as 8% sucrose [2]: 5 of 6 | panelists who found the sample sweeter than 7% but less sweet than 8% sucrose [2]: 1 of 6 | sweetness enhancement effect (equal to sucrose) ([2]; after subtracting own sweetness of 0.5% sucrose): ≥ 0.5 % sucrose | sweetness of iso-mogroside V sample (equal to sucrose) ([2]; compared to 7%, 8% or 9% sucrose, panel of 6): ≥ 8 % sucrose | Taste of iso-mogroside V samples compared to sucrose ([3]; 10 ppm in water vs 0% sucrose (water), 5 panelists): sweeter | Taste of iso-mogroside V samples compared to sucrose ([3]; 10 ppm in water vs 0.5% sucrose, 5 panelists): isosweet | Taste of iso-mogroside V samples compared to sucrose ([3]; 10 ppm in water vs 1.0% sucrose, 5 panelists): less sweet | Taste of iso-mogroside V samples compared to sucrose ([3]; 20 ppm in water vs 0.5% sucrose, 4 panelists): sweeter | Taste of iso-mogroside V samples compared to sucrose ([3]; 20 ppm in water vs 1% sucrose, 4 panelists): isosweet | Taste of iso-mogroside V samples compared to sucrose ([3]; 20 ppm in water vs 1.5% sucrose, 4 panelists): less sweet | equivalent sweetness intensity at the sweetness detection threshold ([3]; about 0.2 ppm in water as stated): about 0.5 % sucrose | sweetness relative to sucrose ([3]; from 10 ppm isosweet to 0.5% sucrose): about 500 times | Taste of iso-mogroside V samples compared to mogroside V ([4]; 10 ppm in water): sweeter | panelists who indicated iso-mogroside V is sweeter than mogroside V ([4]; 10 ppm in water): two | Taste of iso-mogroside V samples compared to mogroside V ([4]; 20 ppm in water): sweeter | panelists who indicated iso-mogroside V is sweeter than mogroside V ([4]; 20 ppm in water): 4 panelists
